Like-named read-outs stand apart in the source and are kept apart here.
Columns and labels:
TCF4 [1] = assay: RT-qPCR of TCF4 expression after ARV-771; type: cell-based, human; conditions: MM057 cells; collected 48 hours after plating
Experimental: MM057 cells were plated and treated with the specified dose of ARV-771, as described above 48 hours after plating, cells were collected, resuspended in RA1 lysis buffer using the RNA NucleoSpin extraction kit (Macherey&Nagel) and processed according to manufacturer's instructions. RNA was quantified using a ThermoScientific NanoDrop 1000 and 500 to 2000 ng was reverse transcribed with a High-Capacity cDNA Reverse Transcription Kit (Life Technologies). qPCRs were run using the SensiFAST probe No-ROX kit (Bioline, Cat #BIO-86005) on a Roche Life Science LightCycler 384. Data processing with Biogazelle Qbase+3.1 software relied on normalization with a minimum of two reference genes.

TCF4 [2] = conditions: B cell lymphoma and BPDCN; Jain et al. 2019, Ceribelli et al. 2016; cited from earlier work
melanoma MES cells = assay: Bulk RNA sequencing after ARV-771 exposure; type: cell-based, human; conditions: 50 nM ARV-771; for antigen presentation program expression: melanoma MES cells
Experimental: Approximately 2*10^5 cells were plated in a 6-well plate. For knockdown experiments, these were transfected with the described siRNA pool 24 and 72 hours after plating and collected 24 hours after the second transfection. For inducible TCF4 experiments, cells were treated with 2 ng/ml doxycycline (Sigma-Aldrich, Cat #D9891) every 48 hours and collected 96 hours after plating. For ARV-771 experiments, cells were treated with 50 nM ARV-771 (Bioconnect, Cat #HY-100972) 24 hours after plating and collected 96 hours after plating. RNA was extracted using the RNA NucleoSpin extraction kit (Macherey&Nagel) according to the manufacturer's instructions.
The RNA integrity was monitored using Bioanalyzer analysis. 5 ng of RNA per sample was reverse-transcribed and amplified using a modified version of the SMARTseq2 protocol, previously described in Rambow et al. 2018 (Cell 174:843-855.e19). Prior to generating sequencing libraries using the NexteraXT kit (Illumina, Cat #FC-131-10), cDNA profiles were monitored using the Bioanalyzer. Sequencing was performed on a Illumina Nextseq500 platform. Differential gene expression analyses were executed using the DeSeq2 pipeline.

TCF4 locus = assay: OmniATAC-seq chromatin accessibility; type: cell-based, human; conditions: MM057 cells; ARV-771 100 nM
Experimental: Approximately […] MM057 cells were plated in a 6-well plate and treated with ARV-771 100 nM after 24 hours. Forty eight hours after plating, cells were collected. Nuclei of 50,000 cells were isolated and an Omni-assay for transposase-accessible chromatin using sequencing (OmniATAC-seq) was performed as described previously (Corces et al. 2017, Nat Methods 14:959-962). After final amplification, samples were cleaned up with MinElute (QIAGEN) and libraries were prepared using the KAPA Library Quantification Kit (supplier). Samples were sequenced on an IlluminaNextSeq 500 High Output chip. Briefly, reads were mapped to human genome (GRCh37) using STAR (2.7.1a-foss-2018a). Resulting BAMfiles were cleaned for duplicates using Picard (2.21.8-Java-1.8.0) and indexed. Mitochondrial reads were removed using SAMtools (1.9-20190828-foss-2018a) and BigWig files were created (deepTools/3.3.1-foss-2018a-Python-3.7.4). ATAC-seq peaks were identified and visualized using MACS2 peak calling (2.1.2.1-foss-2018a-Python-2.7.16) with […] BAMPE parameters. Finally, BED files were created from broadPeak files using BEDTools (2.28.0-foss-2018a).

MM029 cells = assay: Proliferation assay (IncuCyte cell confluency); type: cell-based, human; conditions: ARV-771 300 nM with dabrafenib 50 nM, trametinib 10 nM, FIG. 9
Experimental: Roughly 400 MM029 cells per well were plated in a 96-well plate and treated with ARV-771 300 nM and/or Dabrafenib 50 nM+Trametinib 10 nM after 24 hours. Cells were imaged using the IncuCyte ZOOM System (Essen Bioscience) and automated cell confluency measurements were made using images taken at 2 hour intervals, for the duration of the experiments. Five technical replicates were averaged and statistical significance was assessed (paired, two-tailed Student's t-test).

In the case of `Cc1ncsc1-c1ccc([C@H](C)NC(=O)[C@@H]2C[C@@H](O)CN2C(=O)[C@@H](NC(=O)COCCCOCCNC(=O)C[C@@H]2N=C(c3ccc(Cl)cc3)c3c(sc(C)c3C)-n3c(C)nnc32)C(C)(C)C)cc1` [ARV-771], the TCF4 expression (TCF4 [1]) is listed as “dose-dependent decrease in TCF4 expression”, the TCF4 expression (TCF4 [2]) is listed as “decrease its expression” and the “expression of genes from the MES signature” value (melanoma MES cells) is listed as “strongly downregulated”. The “expression of genes from the MITF-dependent MEL signature” value (melanoma MES cells) was “upregulated”, the “transcriptional changes compared with TCF4 silencing” value (melanoma MES cells) was “recapitulated most of the transcriptional changes observed upon TCF4 silencing” and the “antigen presentation program expression” value (melanoma MES cells) was “upregulated”. For the same compound, the “antigen presentation program expression” value (melanoma MES cells; listed as ARV-711) was “unleashes the expression of antigen presentation machinery and HLA-genes”, the “overall transcriptional reprogramming effect upon BET-inhibition” value (melanoma MES cells; mesenchymal-like vs melanocytic cell lines) was “far more drastic in mesenchymal-like than in melanocytic cell lines” and the “chromatin accessibility upstream of the TCF4 locus” value (TCF4 locus) was “decreased chromatin accessibility upstream of the TCF4 locus”. The “sensitivity to BRAF- and MEK-inhibition (cell growth)” value (MM029 cells) was “increased sensitivity to BRAF- and MEK-inhibition”.

From patent US20260048075A1, “Inhibition of TCF4/ITF2 in the Treatment of Cancer” (VIB VZW, priority 2022, published 2026)
